# Assay results from paper PMC7934925, “A GRM7 mutation associated with developmental delay reduces mGlu7 expression and produces neurological phenotypes” (JCI Insight, 2021).
# What was measured:
# mGlu7 (HA-mGlu7-WT) = target: T1, mGlu7 (HA-mGlu7-WT) (Homo sapiens, UniProt Q14831); assay: thallium flux assay (GIRK) in HEK cells stably expressing the receptor, agonist concentration-response; type: cell-based
# T1 construct: gene GRM7; full-length human mGlu7a isoform (NM_000844.4), HA-tagged, stably expressed in HEK/GIRK cells
# mGlu7 (HA-mGlu7-I154T) = target: T2, mGlu7 (HA-mGlu7-I154T) (Homo sapiens, UniProt Q14831, I154T); assay: as above; type: cell-based
# T2 construct: gene GRM7; full-length human mGlu7a isoform, HA-tagged, I154T, stably expressed in HEK/GIRK cells
# T2 sequence (Q14831 35-915 I154T): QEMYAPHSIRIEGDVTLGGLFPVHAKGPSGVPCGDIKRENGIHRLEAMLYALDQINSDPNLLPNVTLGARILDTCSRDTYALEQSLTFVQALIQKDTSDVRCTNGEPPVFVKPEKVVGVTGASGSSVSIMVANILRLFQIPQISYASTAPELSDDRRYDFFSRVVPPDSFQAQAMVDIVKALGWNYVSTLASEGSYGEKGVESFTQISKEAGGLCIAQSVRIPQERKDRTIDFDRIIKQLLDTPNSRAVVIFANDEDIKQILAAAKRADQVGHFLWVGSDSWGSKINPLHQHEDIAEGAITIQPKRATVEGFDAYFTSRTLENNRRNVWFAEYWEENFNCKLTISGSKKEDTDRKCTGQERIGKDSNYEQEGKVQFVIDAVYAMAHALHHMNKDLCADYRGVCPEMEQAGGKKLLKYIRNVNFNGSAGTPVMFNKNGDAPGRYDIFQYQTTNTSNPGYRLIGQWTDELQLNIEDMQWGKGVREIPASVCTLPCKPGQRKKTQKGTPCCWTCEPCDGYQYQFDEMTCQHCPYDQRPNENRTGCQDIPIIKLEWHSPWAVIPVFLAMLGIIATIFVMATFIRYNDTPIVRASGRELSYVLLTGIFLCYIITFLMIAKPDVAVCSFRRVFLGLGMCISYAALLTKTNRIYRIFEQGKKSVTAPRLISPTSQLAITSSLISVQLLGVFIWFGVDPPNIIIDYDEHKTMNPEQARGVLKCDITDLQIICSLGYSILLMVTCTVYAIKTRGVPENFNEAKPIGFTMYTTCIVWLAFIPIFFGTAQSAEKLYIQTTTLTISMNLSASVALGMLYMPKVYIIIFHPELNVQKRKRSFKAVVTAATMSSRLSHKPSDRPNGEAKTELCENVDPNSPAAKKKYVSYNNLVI
# T1 sequence (Q14831 35-915): as the sequence (Q14831 35-915 I154T) above, with T120I counted along it
smiles,measurement,setting,value
N[C@@H](CCP(=O)(O)O)C(=O)O [L-AP4],EC50,mGlu7 (HA-mGlu7-WT),176 µM
same,EC50,mGlu7 (HA-mGlu7-I154T),540 µM
